In ChEMBL document CHEMBL2417374, “Resistance by allostery: a novel perspective for eg5-targeted drug design” (J Med Chem, 2013):
Active and inactive are the calls of the source. No cut-off for these calls is given here.

System: T1, Kinesin-like protein KIF11 (Homo sapiens), P52732 [D130V,A133D]
T1 sequence (whole entry): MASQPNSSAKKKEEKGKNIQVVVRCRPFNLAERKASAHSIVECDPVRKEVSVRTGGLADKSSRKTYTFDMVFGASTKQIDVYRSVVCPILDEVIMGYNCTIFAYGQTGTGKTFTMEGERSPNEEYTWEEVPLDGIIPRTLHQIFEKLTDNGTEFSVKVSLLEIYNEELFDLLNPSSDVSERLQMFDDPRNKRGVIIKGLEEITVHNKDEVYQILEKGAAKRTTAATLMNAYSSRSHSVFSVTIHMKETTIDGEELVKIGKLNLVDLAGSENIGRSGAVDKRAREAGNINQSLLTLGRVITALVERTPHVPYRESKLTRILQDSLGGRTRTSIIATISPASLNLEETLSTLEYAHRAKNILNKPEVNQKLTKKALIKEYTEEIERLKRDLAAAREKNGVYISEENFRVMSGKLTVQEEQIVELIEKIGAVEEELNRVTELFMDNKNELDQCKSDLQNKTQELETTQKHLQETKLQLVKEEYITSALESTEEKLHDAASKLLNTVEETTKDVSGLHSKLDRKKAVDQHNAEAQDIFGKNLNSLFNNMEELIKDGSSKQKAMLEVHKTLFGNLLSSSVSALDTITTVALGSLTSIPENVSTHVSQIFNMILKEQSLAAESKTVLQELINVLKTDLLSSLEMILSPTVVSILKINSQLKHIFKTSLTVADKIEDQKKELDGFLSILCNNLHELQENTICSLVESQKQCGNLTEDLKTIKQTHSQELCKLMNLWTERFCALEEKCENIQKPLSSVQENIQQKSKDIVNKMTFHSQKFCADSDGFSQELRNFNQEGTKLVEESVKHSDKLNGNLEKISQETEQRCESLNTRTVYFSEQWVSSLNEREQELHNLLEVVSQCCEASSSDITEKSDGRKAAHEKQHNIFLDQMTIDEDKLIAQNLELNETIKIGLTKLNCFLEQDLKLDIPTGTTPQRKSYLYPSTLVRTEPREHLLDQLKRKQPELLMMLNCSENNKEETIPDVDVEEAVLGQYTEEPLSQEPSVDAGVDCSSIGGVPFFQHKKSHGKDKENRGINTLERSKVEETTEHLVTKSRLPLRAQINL
Experiment: Partial inhibition of MT-stimulated ATPase activity of Eg5 D130V/A133D (unknown origin)

- inhibition: Active
Compound: Cc1ccc(C(=O)N(CCCN)[C@@H](c2oc3cc(Cl)ccc3c(=O)c2Cc2ccccc2)C(C)C)cc1
